Key:
[1] = Stability of JNJ in mouse plasma at different storage conditions; format: in vitro ADME
Procedure: The stability of JNJ in mouse plasma was evaluated at three replicates of LQC and HQCs in different storage conditions. Studies were conducted with the study of bench-top stability for 4 h at room temperature, freeze–thaw stability (three freeze–thaw cycles), autosampler stability (4 °C for 48 h) and long-term stability (at −80 °C for 1 month). Samples were considered stable if the % drug remaining after storage conditions was within ±15% compared to the freshly prepared QC samples.

[2] = Matrix stability study in mouse plasma; format: in vitro ADME; conditions: 5 µg mL^−1, 37 °C, approximately 5 h, triplicate, read-out: concentration remaining (%)
Procedure: For the matrix stability study, JNJ was spiked into mouse plasma and brain homogenate at a final concentration of 5 µg mL^−1 and incubated at 37 °C for 5 h on a shaking water bath in triplicate. At the specified sampling times, 50 µL aliquots were taken in the collection plate, followed by quenching with 300 µL acetonitrile containing 10 µL IS. After final collection, samples were vortexed at 1000 rpm for 2 min and centrifuged at 2200× g for 10 min, and the collected supernatant was analyzed using LC-MS/MS. Stability was estimated by determining the % remaining after 5 h of incubation using Equation (1).(1) % remaining=Concentration5h/Concentration0h×100

[3] = Parallel artificial membrane permeability assay (PAMPA); format: physicochemical; conditions: 5 µg mL^−1 in PBS, room temperature, read-out: apparent permeability (Papp), PAMPA
Procedure: A Corning® BioCoat™ Pre-coated PAMPA Plate System, obtained from Corning Life Sciences (Glendale, AZ, USA), was used for the noncell-based permeability assay. As per the manufacturer’s instructions, the PAMPA plate was warmed at room temperature for 30 min to make it ready for use. A JNJ stock solution was prepared in PBS at a concentration of 5 µg mL^−1. Then, 300 µL of that prepared solution was poured into the donor side and 200 µL PBS was added to the acceptor side of each well in triplicate. After incubation for 5 h at room temperature, 50 µL samples were collected separately from the donor and acceptor chamber. Finally, samples were processed following the extraction procedure and analyzed using LC-MS/MS analysis. The apparent permeability coefficient is determined using the following formula:(8) Papp=−ln[1 − Cat/Ceq]/A ∗ 1/Vd + 1/Va∗t where Papp = apparent permeability in cm s^−1, Co = initial compound concentration in donor well (µg mL^−1), Cd(t) = compound concentration in donor well at time t (µg mL^−1), Ca(t) = compound concentration in acceptor well at time t (µg mL^−1), Vd = donor well volume (0.3 mL), Va = acceptor well volume (0.2 mL), A = filter area (0.3 cm^2), and t = incubation time (18,000 s). Ceq is calculated by(9) Ceq=[Cd(t)∗Vd+Ca(t)∗Va] /(Vd+Va)

[4] = Caco-2 permeability study; format: in vitro ADME, human; conditions: human, Caco-2, absorptive direction (apical to basal), read-out: apparent permeability (Papp), Caco-2
Procedure: (§1) Human colon carcinoma cells (Caco-2) were obtained from ATCC (American Type Culture Collection) (Manassas, VA, USA). Caco-2 cells were cultured in Dulbecco’s Modified Eagle’s Medium (DMEM), supplemented with 10% fetal bovine serum, 1% nonessential amino acids, 100 U mL^−1 penicillin, and 100 µg mL^−1 streptomycin. The cells were split upon reaching the 80–90% confluence to make them ready to seed. Afterwards, the cells were seeded at a density of 80,000 cells/well in a 12-well tissue culture plate with a 0.4 µm pore size, purchased from CELLTREAT Scientific Products (Pepperell, MA, USA), and incubated at 37 °C in an incubator with 5% CO2 conditions. […] The integrity of the monolayer was evaluated by measuring the transepithelial electrical resistance (TEER) value using EVOM2™ Epithelial Voltohmmeter purchased from World Precision Instruments Inc. (Sarasota, FL, USA).
(§2) JNJ was spiked at a final concentration of 10 µM to the apical side in a volume of 500 µL HBSS-HEPES (10 mM) buffer along with the positive control (propranolol and atenolol) in respective wells. […] After determined timepoints (0, 30, 60, 90, and 120 min), 100 µL aliquots were collected from the apical or basolateral sites, each time replacing with an equal volume of blank buffer. […]

Caco-2 cell monolayer = test: Caco-2 permeability study; format: in vitro ADME, human; conditions: absorptive direction (apical to basal), 10 µM
Procedure: as §1, §2

[5] = input for fu,inc equation; source not given; cited from earlier work

Structure (SMILES): Nc1nc2cc(CC[C@H]3C[C@@H](n4ccc5c(N)ncnc54)[C@H](O)[C@@H]3O)ccc2cc1Br [JNJ, JNJ-64619178]
- % Stability Recoveries (Mean ± SD), Autosampler (4 °C, 48 h) ([1]; HQC (375 ng mL^−1)): 110 ± 6%
- % Stability Recoveries (Mean ± SD), Bench-Top (RT, 4 h) ([1]; HQC (375 ng mL^−1)): 101 ± 15%
- % Stability Recoveries (Mean ± SD), Freeze–Thaw (−80 ± 5 °C After 3 Cycle) ([1]; HQC (375 ng mL^−1)): 94 ± 8%
- % Stability Recoveries (Mean ± SD), Long-Term Stability (−80 ± 5 °C, 30 Days) ([1]; HQC (375 ng mL^−1)): 95 ± 8%
- % Stability Recoveries (Mean ± SD), Autosampler (4 °C, 48 h) ([1]; LQC (0.5 ng mL^−1)): 110 ± 7%
- % Stability Recoveries (Mean ± SD), Bench-Top (RT, 4 h) ([1]; LQC (0.5 ng mL^−1)): 91 ± 9%
- % Stability Recoveries (Mean ± SD), Freeze–Thaw (−80 ± 5 °C After 3 Cycle) ([1]; LQC (0.5 ng mL^−1)): 93 ± 4%
- % Stability Recoveries (Mean ± SD), Long-Term Stability (−80 ± 5 °C, 30 Days) ([1]; LQC (0.5 ng mL^−1)): 97 ± 9%
- remaining at 5 h, 5 µg mL^−1 [2]: ~100%
- Papp at 5 h, 5 µg mL^−1 [3]: 7 ± 4 ×10⁻⁶ cm/s
- Papp A→B at 120 min, 10 µM [4]: 3.4 ± 0.4 ×10⁻⁶ cm/s
- apparent permeability (Papp), Caco-2 (Caco-2 cell monolayer): 3 ± 0.4 (×10^−6) cm s^−1
- logP [5]: 2.3

— paper PMC13164762, “Development and Validation of an LC-MS/MS Method for the Quantitation of JNJ-64619178 (JNJ) in Mouse Plasma: Characterization of In Vitro and In Vivo Pharmacokinetic Properties” (Molecules, 2026)
